63 molecules from patent publication US8981106B2, “Pyrimidinecarboxamides as CXCR2 modulators” (Syntrix Biosystems, Inc., priority 2009, dated 2015) can be followed below.

Structures are written as SMILES.

Sequence of CXCR2 (P25025 whole entry): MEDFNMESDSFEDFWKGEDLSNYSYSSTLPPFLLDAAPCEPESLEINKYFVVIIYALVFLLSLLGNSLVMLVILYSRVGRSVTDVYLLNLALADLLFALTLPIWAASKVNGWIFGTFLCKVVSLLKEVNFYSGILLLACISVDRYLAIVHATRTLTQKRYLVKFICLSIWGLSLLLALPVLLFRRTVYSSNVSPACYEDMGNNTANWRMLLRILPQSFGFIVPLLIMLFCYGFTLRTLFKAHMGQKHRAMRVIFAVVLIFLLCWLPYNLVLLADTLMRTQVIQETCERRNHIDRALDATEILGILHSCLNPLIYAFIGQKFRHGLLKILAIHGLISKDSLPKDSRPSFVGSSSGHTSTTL

In this assay the target is CXCR2 (Homo sapiens (Human), UniProt P25025). In words: Inhibition of GROα-mediated intracellular calcium release in human neutrophils (FLIPR-3 Ca2+ mobilization). The assay is classed as cell-based. The following applies: human neutrophils, 25 nM GROα; read-out: IC50. As for the experimental part:
In Tables 1-5, the IC50 or EC50 values were determined using the following assay. This assay measures intracellular calcium release via fluorescence as an indication of CXCR2 receptor activation by the physiologic agonist GROα. The assay is a Ca^2+ mobilization assay that measures changes in intracellular Ca^2+ with a FlexStation II scanning fluorometer using a FLIPR-3 Calcium Assay Kit (Molecular Devices, Sunnyvale, Calif.). The procedure is as follows:
1. Human neutrophils were suspended in HBSS^− (without Ca^2+ and Mg^2+) containing 10 mM HEPES and FLIPR Calcium 3 dye (3.1×10^7 cells in total volume 1.7 mL).
2. […] As controls, 2 μL of DMSO (1% final concentration) were added to other 2 tubes.
3. Cells were incubated for 30 min at 37° C.
4. After dye loading, tubes were centrifuged at 6,000 rpm for 1 min, supernatant was removed and cell pellet was re-suspended in 200 μL of HBSS^+ (with Ca^2+ and Mg^2+) containing 10 mM HEPES.
5. The compound or DMSO (control) was added again at the same concentrations that were used during cell loading.
6. The cell suspension was aliquoted into a 96-well Reading Plate (Corning) in a volume of 90 μL (10^5 cells/well). The Compound Plate contained physiologic agonist (GROα in HBSS^−) or HBSS^− (control).
9. The maximum change in fluorescence, expressed in arbitrary units over baseline (Max-Min) was used to determine the GROα response. […] Therapeutic Activity
Briefly, human neutrophils were suspended in HBSS^− (without Ca^2+ and Mg^2+) containing 10 mM HEPES and FLIPR Calcium 3 dye (3.1×10^7 cells in total volume 1.7 mL). […] As controls, 2 μL of DMSO (1% final concentration) were added to 2 other tubes. Cells were incubated for 30 min at 37° C. After dye loading, tubes were centrifuged at 6,000 rpm for 1 min, supernatant was removed and the cell pellet was re-suspended in 200 μL of HBSS^+ (with Ca^2+ and Mg^2+) containing 10 mM HEPES. The test compound or DMSO (control) was added again at the same concentrations that were used during cell loading. The cell suspension was aliquoted into a 96-well Reading Plate (Corning) in a volume of 90 μL (10^5 cells/well). The Compound Plate contained agonist (GROα in HBSS^−) or HBSS^− (control).
The maximum change in fluorescence, expressed in arbitrary units over baseline (Max-Min), was used to determine the GROα response.
In general terms: A change in cytosolic calcium serves as a functional read-out for many receptors and channels.
With `O=C(Nc1ccc(F)cc1)c1ccc(SCc2cc(F)ccc2B(O)O)nc1` [Compound 3], the half-maximal inhibitory concentration (IC50) was found to be 52 ± 5 nM.

Take `COc1cc(CSc2ccc(C(=O)Nc3ccc(F)cc3)cn2)c(B(O)O)cc1OC` [Compound 5, 6-(2-boronic acid-4,5-di-methoxy-benzylsulfanyl)-N-(4-fluoro-phenyl)-nicotinamide]: the IC50 is over 10000 nM. To `O=C(Nc1ccc(F)cc1)c1ccc(SCc2cc3c(cc2B(O)O)OCO3)nc1` [Compound 6] belongs over 10000 nM; to `O=C(Nc1ccc(F)cc1)c1ccc(SCc2cccc(B(O)O)c2)nc1` [Compound 7], 1970 ± 750 nM; to `O=C(Nc1ccc(F)cc1)c1ccc(SCc2ccc(B(O)O)cc2)nc1` [Compound 8], 899 ± 150 nM. In the case of `O=C(Nc1ccc(F)cc1)c1ccc(SCCc2ccccc2B(O)O)nc1` [Compound 9], the IC50 came to 387 ± 125 nM.

As for `O=C(Nc1ccc(F)cc1)c1ccc(SCCCCB(O)O)nc1` [Compound 10], the IC50 is 689 ± 230 nM. To `O=C(Nc1ccc(F)cc1)c1ccc(SCc2ccccc2)nc1` [Compound 12] belongs 393 ± 160 nM; to `CC(=O)Oc1ccccc1CSc1ccc(C(=O)Nc2ccc(F)cc2)cn1` [Compound 13a], over 5000 nM. For the molecule `CC(=O)Oc1ccc(OC(F)(F)F)cc1CSc1ccc(C(=O)Nc2ccc(F)cc2)cn1` [Compound 14a], the IC50 worked out at 1060 ± 270 nM.

Take `CC1(C)OB(c2ccccc2CCSc2ccc(C(=O)Nc3ccc(F)cc3)cn2)OC1(C)C` [Compound 15]: the IC50 turned out to be 611 nM. To `CC1(C)OB(c2ccccc2CSc2ccc(C(=O)Nc3ccc(F)cc3)cn2)OC1(C)C` [Compound 16] belongs 275 ± 103 nM. To `CC1(C)C2CC3OB(c4ccccc4CSc4ccc(C(=O)Nc5ccc(F)cc5)cn4)OC3(C)C1C2` (stereo not drawn) [Compound 17] belongs 59 ± 29 nM.

Consider `CC1(C)OB(c2ccc(F)cc2CSc2ccc(C(=O)Nc3ccc(F)cc3)cn2)OC1(C)C` [Compound 18], for which the IC50 turned out to be 1230 ± 120 nM. To `CC1(C)OB(c2ccc(OC(F)(F)F)cc2CSc2ccc(C(=O)Nc3ccc(F)cc3)cn2)OC1(C)C` [Compound 19, 6-(2-boronic pinacol ester-5-trifluoromethoxy-benzylsulfanyl)-N-(4-fluoro-phenyl)-nicotinamide] belongs 72 ± 7 nM. In the case of `CC1(C)OB(c2ccc(CSc3ccc(C(=O)Nc4ccc(F)cc4)cn3)cc2)OC1(C)C` [Compound 20] it was 112 ± 67 nM.

`COC(=O)c1ccccc1CSc1ccc(C(=O)Nc2ccc(F)cc2)cn1` [Compound 21]: the IC50 is 759 ± 190 nM.

For `COC(=O)c1cccc(CSc2ccc(C(=O)Nc3ccc(F)cc3)cn2)c1` [Compound 22], the IC50 is over 5000 nM. In the case of `COC(=O)c1ccc(CSc2ccc(C(=O)Nc3ccc(F)cc3)cn2)cc1` [Compound 23] it was over 10000 nM; in that of `O=C(Nc1ccc(F)cc1)c1ccc(SCc2ccccc2C(=O)O)nc1` [Compound 24], 1480 ± 490 nM. Regarding `O=C(O)c1cccc(CSc2ccc(C(=O)Nc3ccc(F)cc3)cn2)c1` [Compound 25], the IC50 was found to be 2120 ± 740 nM. Take `O=C(Nc1ccc(F)cc1)c1ccc(SCc2ccccc2-c2nn[nH]n2)nc1` [Compound 26]: the IC50 was 173 ± 46 nM.

Turning to `O=C(Nc1ccc(F)cc1)c1ccc(SCc2ccc(Cl)c(Cl)c2)nc1` [Compound 27], the IC50 came out at 1610 nM. In the case of `Cc1cccc(CSc2ccc(C(=O)Nc3ccc(F)cc3)cn2)c1F` [Compound 28] it was over 10000 nM. To `O=C(Nc1ccc(F)cc1)c1ccc(SCc2ccc(-c3ccsc3)cc2)nc1` [Compound 29] belongs over 10000 nM. In the case of `O=C(Nc1ccc(F)cc1)c1ccc(SCc2ccccc2-c2cccs2)nc1` [Compound 30] it was over 5000 nM; in that of `O=C(Nc1ccc(F)cc1)c1ccc(SCc2ccc(-n3cccc3)cc2)nc1` [Compound 31], over 10000 nM; in that of `O=C(Nc1ccc(F)cc1)c1ccc(SCc2ccc(-n3cccn3)cc2)nc1` [Compound 32], over 10000 nM. For `O=C(Nc1ccc(F)cc1)c1ccc(SCc2ccc(-n3cncn3)cc2)nc1` [Compound 33], the half-maximal inhibitory concentration (IC50) is over 10000 nM. For the molecule `Cc1nc(-c2ccc(CSc3ccc(C(=O)Nc4ccc(F)cc4)cn3)cc2)no1` [Compound 34], the IC50 was over 10000 nM. On to `Cc1nc(-c2cccc(CSc3ccc(C(=O)Nc4ccc(F)cc4)cn3)c2)no1` [Compound 35], for which the IC50 was over 10000 nM. In the case of `Cc1nc(-c2ccc(CSc3ccc(C(=O)Nc4ccc(F)cc4)cn3)cc2)cs1` [Compound 36] it was over 10000 nM; in that of `Cc1nc(-c2cccc(CSc3ccc(C(=O)Nc4ccc(F)cc4)cn3)c2)cs1` [Compound 37], over 5000 nM. In the case of `O=C(Nc1ccc(F)cc1)c1ccc(SCc2cccc(-n3cccc3)c2)nc1` [Compound 38] it was over 10000 nM; in that of `O=C(Nc1ccc(F)cc1)c1ccc(SCc2ccc([N+](=O)[O-])cc2)nc1` [Compound 39], over 10000 nM.

As to `O=C(Nc1ccc(F)cc1)c1ccc(SCc2cc([N+](=O)[O-])ccc2O)nc1` [Compound 40], the concentration for half-maximal inhibition (IC50) was over 5000 nM. Regarding `O=C(Nc1ccc(F)cc1)c1ccc(SCc2ccc(OC(F)(F)F)cc2)nc1` [Compound 41], the IC50 was over 10000 nM. As for `O=C(Nc1ccc(F)cc1)c1ccc(SCc2cccc(OC(F)(F)F)c2)nc1` [Compound 42], the concentration for half-maximal inhibition (IC50) is over 10000 nM. In the case of `O=C(Nc1ccc(F)cc1)c1ccc(SCc2ccncc2)nc1` [Compound 43] it was over 5000 nM; in that of `Cc1cc(CSc2ccc(C(=O)Nc3ccc(F)cc3)cn2)no1` [Compound 44], over 5000 nM; in that of `Cc1onc(-c2ccccc2)c1CSc1ccc(C(=O)Nc2ccc(F)cc2)cn1` [Compound 45], over 5000 nM. In the case of `Cc1noc(-c2ccccc2)c1CSc1ccc(C(=O)Nc2ccc(F)cc2)cn1` [Compound 46], the IC50 was over 10000 nM.

As to `Cc1n[nH]c(C)c1CCSc1ccc(C(=O)Nc2ccc(F)cc2)cn1` [Compound 47], the half-inhibitory concentration (IC50) was over 5000 nM. To `O=C(Nc1ccc(F)cc1)c1ccc(SCc2nn[nH]n2)nc1` [Compound 49] belongs 3900 ± 1200 nM; to `O=C(Nc1ccc(F)cc1)c1ccc(SCc2cccc3c2OCCCO3)nc1` [Compound 50], 350 nM; to `O=C(Nc1ccc(F)cc1)c1ccc(SCC2COc3ccccc3O2)nc1` (stereo not drawn) [Compound 51], 760 nM. In the case of `O=C(Nc1ccc(F)cc1)c1ccc(SCCOc2cccc3c2OCCO3)nc1` [Compound 52] it was 1580 nM; in that of `O=C(Nc1ccc(F)cc1)c1ccc(SCc2cccc3cccnc23)nc1` [Compound 53], over 5000 nM; in that of `O=C(Nc1ccc(F)cc1)c1ccc(SCc2nccc3ccccc23)nc1` [Compound 54], over 5000 nM.

For the molecule `Cc1ccc2cc(CSc3ccc(C(=O)Nc4ccc(F)cc4)cn3)ccc2n1` [Compound 55], the IC50 is over 10000 nM. In the case of `O=C(Nc1ccc(F)cc1)c1ccc(SCc2ccc3nc(C(F)(F)F)cc(Cl)c3c2)nc1` [Compound 56] it was over 5000 nM. `Nc1nc(N)c2nc(CSc3ccc(C(=O)Nc4ccc(F)cc4)cn3)cnc2n1` [Compound 57]: the IC50 was over 10000 nM. To `O=C(Nc1ccc(F)cc1)c1ccc(SCCCN2C(=O)c3ccc([N+](=O)[O-])cc3C2=O)nc1` [Compound 58] belongs over 5000 nM. For `O=C(Nc1ccc(F)cc1)c1ccc(SCCCCN2C(=O)c3ccc([N+](=O)[O-])cc3C2=O)nc1` [Compound 59], the half-maximal inhibitory concentration (IC50) was over 10000 nM.

For the molecule `O=C(Nc1ccc(F)cc1)c1ccc(SCCCCCCN2C(=O)c3ccc([N+](=O)[O-])cc3C2=O)nc1` [Compound 60], the IC50 was over 10000 nM.

Regarding `O=C(Nc1ccc(F)cc1)c1ccc(SCc2ccc3nsnc3c2)nc1` [Compound 62], the IC50 is over 10000 nM.

`O=C(Nc1ccc(F)cc1)c1ccc(SCc2cc3nsnc3cc2Cl)nc1` [Compound 63]: the IC50 is over 10000 nM. To `O=C(Nc1ccc(F)cc1)c1ccc(SCc2cccc3nsnc23)nc1` [Compound 64] belongs over 5000 nM.

Regarding `O=C(Nc1ccc(F)cc1)c1ccc(SCc2ccc3nonc3c2)nc1` [Compound 65], the IC50 came out at 216 ± 66 nM. Consider `O=C(Nc1ccc(F)cc1)c1ccc(SCc2cccc3nonc23)nc1` [Compound 66], for which the half-maximal inhibitory concentration (IC50) is over 5000 nM. In the case of `Cn1c(CSc2ccc(C(=O)Nc3ccc(F)cc3)cn2)nc2ccccc21` [Compound 67] it was over 10000 nM. To `O=C(Nc1ccc(F)cc1)c1ccc(SCc2nc3ccccc3s2)nc1` [Compound 68] belongs over 10000 nM; to `O=C(Nc1ccc(F)cc1)c1ccc(SCc2csc3ccc(Cl)cc23)nc1` [Compound 69], over 10000 nM.

One may read the IC50 as the concentration needed to halve the response being measured.
